According to PMC11418212, “Characterization of four structurally diverse inhibitors of SUR2-containing KATP channels” (Channels, 2024):
Where “and” joins values, the source holds several entries; their conditions need not be identical. Identical values can stand only once. Entries after “also recorded” stand apart in the source; their conditions may differ. Like-named read-outs stand apart in the source and are kept apart here.

Columns and labels:
Type in all cases: cell-based
Kir6.1/SUR2B [1] = target: T1, Kir6.1/SUR2B (Homo sapiens, UniProt O60706); assay: Whole-cell patch clamp electrophysiology, T-Rex-HEK293-Kir6.1/SUR2B cells; settings: 10 µM compound in continued presence of pinacidil (1 μM in Figure 2)
T1 construct: expressed in transfected cells; Kir6.1 tetracycline-inducible, SUR2B constitutive
Description: Whole-cell patch clamp electrophysiology experiments were conducted as described previously. Briefly, stably transfected T-Rex-HEK293 cells expressing Kir6.1/SUR2B were seeded at a density of 250,000 cells per 35-mm dish coated with tissue culture-treated polystyrene and incubated at 37°C in a 5% CO2 atmosphere. Whole-cell patch-clamp experiments were initiated 48 h post-seeding. On the day of the experiment, cells were dissociated and seeded onto poly-L-lysine-coated glass coverslips, where they were allowed to recover for at least one hour in a 37°C/5% CO2 incubator prior to the recordings. Patch pipettes with resistances of 2 to 3 MΩ were employed, containing an internal solution composed of 130 mM KCl, 2 mM MgCl2, 1 mM EGTA, 20 mM HEPES-free acid, and 1 mM Na2ADP, adjusted to pH 7.3 with KOH and an osmolarity of 275 mOsmol/kg with sucrose. The extracellular solution consisted of 135 mM NaCl, 5 mM KCl, 2 mM CaCl2, 1 mM MgCl2, 5 mM glucose, and 10 mM HEPES-free acid adjusted to pH 7.4 with NaOH. Test compounds were initially diluted in DMSO before being further diluted into the bath solution, maintaining a final DMSO concentration of less than 0.1% v/v. Recordings of macroscopic currents were conducted in a voltage-clamp setup using an Axopatch 200B Amplifier (Molecular Devices, Sunnyvale, CA), with data sampled at 5 kHz and low-pass filtered at 1 kHz. A ramp protocol was used to generate current–voltage curve relationships. The voltage protocol involved holding the cells at −75 mV, followed by a 200-msec step to −120 mV, a linear ramp to 120 mV over 240 msec at a rate of […], maintaining at 120 mV for 15 msec, and finally stepping back to −120 mV for 100 msec, with this sequence repeated every 5 seconds. […] All data acquisition and analyses were performed using pClamp software version 9.2 (Molecular Devices).
Gold-standard voltage-clamp electrophysiology was used to confirm the inhibitory effects of VU0212387, VU0543336, VU0605768, and VU0544086 on Kir6.1/SUR2B channel activity (Figure 2a–d).
Figure 2. Confirmation of VU0212387, VU0543336, VU0605768, or VU0544086-dependent inhibition of Kir6.1/SUR2B with patch clamp electrophysiology. […] VU compounds tested were (a) VU0212387, (b) VU0543336, (c) VU0605768, or (d) VU0544086. Data mean ± SD current density (n = 3).

Kir6.1/SUR2B [2] = target: T1, Kir6.1/SUR2B; assay: Thallium flux activation dose-response without channel pre-activation; settings: no channel pre-activation; doses up to 30 µM
Description: (§1) Thallium flux assays were conducted using the established methods. Stably transfected T-REx-HEK-293 cells expressing Kir6.2/SUR1 or Kir6.1/SUR2B were cultured overnight in polyamine-coated plates (black-walled, clear-bottomed; BD, Bedford, MA) at a density of 20,000 cells in 20 µl per well of cell culture media. The expression of Kir6.2/SUR1 or Kir6.1/SUR2B channels was induced by treating cells with 1 µg/ml tetracycline overnight. The following day, cells were rinsed with an assay buffer (Hanks’ Balanced Salt Solution supplied with 20 mM HEPES), loaded with the thallium-sensor dye Brilliant Thallos-AM AM (Ion Bioscience, San Marcos, TX) for 1 h, and then washed again with assay buffer to remove unincorporated dye. The cell plate was subsequently placed in a Panoptic Kinetic Imaging Plate Reader (Wavefront Bioscience, Franklin, TN) and imaged at a frequency of 1 Hz using 482/35 nm (excitation) and 536/40 nm (emission) filter sets. Kir6.1/SUR2B channels were activated with 10 µM pinacidil, whereas Kir6.1/SUR1 was activated with 30 µM VU0071063 [34]. To activate KATP channels independent of activators with ATP-depletion method, cells were treated with a cocktail of metabolic inhibitors (2.5 mM sodium cyanide and 20 mM 2-deoxy glucose) for 25 min before imagine. Control and test compounds diluted freshly from DMSO stocks into assay buffer were added to wells for four minutes before adding 0.5 mM chloride-free thallium stimulus buffer (Ion Bioscience) to initiate thallium flux through the expressed KATP channels. Thallium flux was recorded from all 384-wells for 2 min before terminating the experiment. […] Selectivity assays against other Kir channels were performed as described previously.
(§2) We therefore systematically explored this possibility in dose–response experiments against Kir6.2/SUR1 in the absence of channel pre-activation. Kir6.1/SUR2B was also evaluated for comparison.
(§3) Figure 6. Paradoxical activation of Kir6.2/SUR1. […] Fluorescence intensity at each dose was normalized to that in the absence of drug. […] (b) Activities of indicated compounds at 30 μM toward Kir6.1/SUR2B normalized to that of 30 μM pinacidil. […] (d) Activities of indicated compounds at 30 μM toward Kir6.2/SUR1 normalized to that of 30 μM VU0071063.

Kir6.2/SUR1 = Kir6.2/SUR1 (Homo sapiens, UniProt Q09428); assay: as above; settings: no channel pre-activation; doses up to 30 µM
Description: as §1, §2, §3

Kir6.1/SUR2B [3] = target: T1, Kir6.1/SUR2B; assay: Quantitative thallium flux assay, inhibition, stably transfected T-REx-HEK293 cells
[4] = ATP depletion with sodium cyanide and 2-deoxy-glucose, read-out: IC50 Kir6.1/SUR2B, ATP depletion
[5] = channels activated with 10 µM pinacidil, read-out: IC50 Kir6.1/SUR2B, pinacidil activation

T1 sequence (O60706 1-1549 isoform O60706-2, species assumed): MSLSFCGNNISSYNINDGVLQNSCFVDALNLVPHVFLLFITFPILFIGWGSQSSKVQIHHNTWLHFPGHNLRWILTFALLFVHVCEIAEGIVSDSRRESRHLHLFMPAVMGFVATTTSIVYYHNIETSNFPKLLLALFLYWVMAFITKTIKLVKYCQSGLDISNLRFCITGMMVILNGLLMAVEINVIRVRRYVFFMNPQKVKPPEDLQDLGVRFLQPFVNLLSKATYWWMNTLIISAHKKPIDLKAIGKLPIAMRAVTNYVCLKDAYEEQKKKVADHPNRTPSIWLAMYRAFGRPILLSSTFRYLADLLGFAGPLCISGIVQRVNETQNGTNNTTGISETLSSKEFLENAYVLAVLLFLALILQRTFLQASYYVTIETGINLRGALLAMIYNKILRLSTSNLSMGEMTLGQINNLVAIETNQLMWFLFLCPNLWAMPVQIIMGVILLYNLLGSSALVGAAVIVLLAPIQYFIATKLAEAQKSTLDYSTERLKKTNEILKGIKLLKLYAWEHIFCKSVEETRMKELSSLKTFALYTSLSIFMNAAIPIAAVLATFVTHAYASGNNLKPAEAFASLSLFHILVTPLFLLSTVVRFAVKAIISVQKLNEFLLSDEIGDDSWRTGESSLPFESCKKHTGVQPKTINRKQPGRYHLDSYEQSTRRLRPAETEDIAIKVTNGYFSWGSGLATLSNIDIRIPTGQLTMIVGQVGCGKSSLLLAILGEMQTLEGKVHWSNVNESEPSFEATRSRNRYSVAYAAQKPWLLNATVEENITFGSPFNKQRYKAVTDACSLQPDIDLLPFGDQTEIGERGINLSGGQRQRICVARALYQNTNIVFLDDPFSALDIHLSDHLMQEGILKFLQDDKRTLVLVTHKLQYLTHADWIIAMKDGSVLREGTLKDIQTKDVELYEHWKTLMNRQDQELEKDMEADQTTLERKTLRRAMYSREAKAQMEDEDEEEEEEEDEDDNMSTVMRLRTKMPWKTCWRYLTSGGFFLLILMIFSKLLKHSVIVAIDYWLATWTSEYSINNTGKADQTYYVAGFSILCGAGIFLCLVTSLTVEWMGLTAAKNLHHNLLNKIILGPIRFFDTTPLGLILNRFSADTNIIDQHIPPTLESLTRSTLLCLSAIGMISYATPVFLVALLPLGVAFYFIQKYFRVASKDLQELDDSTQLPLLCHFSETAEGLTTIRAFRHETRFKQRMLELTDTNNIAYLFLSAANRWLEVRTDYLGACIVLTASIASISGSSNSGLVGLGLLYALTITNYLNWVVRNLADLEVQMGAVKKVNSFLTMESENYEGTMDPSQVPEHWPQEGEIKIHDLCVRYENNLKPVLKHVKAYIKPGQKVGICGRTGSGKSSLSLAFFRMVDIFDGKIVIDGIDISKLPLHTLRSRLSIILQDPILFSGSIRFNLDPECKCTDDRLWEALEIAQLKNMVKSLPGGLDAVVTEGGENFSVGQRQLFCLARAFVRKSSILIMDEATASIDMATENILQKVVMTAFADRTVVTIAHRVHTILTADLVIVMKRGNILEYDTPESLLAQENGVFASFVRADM
T1 sequence (Q15842 whole entry partner, species assumed): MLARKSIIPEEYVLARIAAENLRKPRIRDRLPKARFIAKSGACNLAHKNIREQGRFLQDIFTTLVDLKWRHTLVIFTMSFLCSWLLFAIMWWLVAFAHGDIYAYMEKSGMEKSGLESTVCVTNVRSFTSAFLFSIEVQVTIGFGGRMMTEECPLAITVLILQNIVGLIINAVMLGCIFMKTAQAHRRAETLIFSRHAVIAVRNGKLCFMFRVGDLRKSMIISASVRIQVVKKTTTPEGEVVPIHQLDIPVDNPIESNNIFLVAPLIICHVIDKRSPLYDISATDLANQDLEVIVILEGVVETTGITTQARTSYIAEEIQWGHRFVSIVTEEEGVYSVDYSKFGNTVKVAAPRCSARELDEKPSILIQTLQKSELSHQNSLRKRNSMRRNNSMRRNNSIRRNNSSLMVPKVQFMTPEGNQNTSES
Chain of Kir6.2/SUR1 (Q09428 whole entry, species assumed): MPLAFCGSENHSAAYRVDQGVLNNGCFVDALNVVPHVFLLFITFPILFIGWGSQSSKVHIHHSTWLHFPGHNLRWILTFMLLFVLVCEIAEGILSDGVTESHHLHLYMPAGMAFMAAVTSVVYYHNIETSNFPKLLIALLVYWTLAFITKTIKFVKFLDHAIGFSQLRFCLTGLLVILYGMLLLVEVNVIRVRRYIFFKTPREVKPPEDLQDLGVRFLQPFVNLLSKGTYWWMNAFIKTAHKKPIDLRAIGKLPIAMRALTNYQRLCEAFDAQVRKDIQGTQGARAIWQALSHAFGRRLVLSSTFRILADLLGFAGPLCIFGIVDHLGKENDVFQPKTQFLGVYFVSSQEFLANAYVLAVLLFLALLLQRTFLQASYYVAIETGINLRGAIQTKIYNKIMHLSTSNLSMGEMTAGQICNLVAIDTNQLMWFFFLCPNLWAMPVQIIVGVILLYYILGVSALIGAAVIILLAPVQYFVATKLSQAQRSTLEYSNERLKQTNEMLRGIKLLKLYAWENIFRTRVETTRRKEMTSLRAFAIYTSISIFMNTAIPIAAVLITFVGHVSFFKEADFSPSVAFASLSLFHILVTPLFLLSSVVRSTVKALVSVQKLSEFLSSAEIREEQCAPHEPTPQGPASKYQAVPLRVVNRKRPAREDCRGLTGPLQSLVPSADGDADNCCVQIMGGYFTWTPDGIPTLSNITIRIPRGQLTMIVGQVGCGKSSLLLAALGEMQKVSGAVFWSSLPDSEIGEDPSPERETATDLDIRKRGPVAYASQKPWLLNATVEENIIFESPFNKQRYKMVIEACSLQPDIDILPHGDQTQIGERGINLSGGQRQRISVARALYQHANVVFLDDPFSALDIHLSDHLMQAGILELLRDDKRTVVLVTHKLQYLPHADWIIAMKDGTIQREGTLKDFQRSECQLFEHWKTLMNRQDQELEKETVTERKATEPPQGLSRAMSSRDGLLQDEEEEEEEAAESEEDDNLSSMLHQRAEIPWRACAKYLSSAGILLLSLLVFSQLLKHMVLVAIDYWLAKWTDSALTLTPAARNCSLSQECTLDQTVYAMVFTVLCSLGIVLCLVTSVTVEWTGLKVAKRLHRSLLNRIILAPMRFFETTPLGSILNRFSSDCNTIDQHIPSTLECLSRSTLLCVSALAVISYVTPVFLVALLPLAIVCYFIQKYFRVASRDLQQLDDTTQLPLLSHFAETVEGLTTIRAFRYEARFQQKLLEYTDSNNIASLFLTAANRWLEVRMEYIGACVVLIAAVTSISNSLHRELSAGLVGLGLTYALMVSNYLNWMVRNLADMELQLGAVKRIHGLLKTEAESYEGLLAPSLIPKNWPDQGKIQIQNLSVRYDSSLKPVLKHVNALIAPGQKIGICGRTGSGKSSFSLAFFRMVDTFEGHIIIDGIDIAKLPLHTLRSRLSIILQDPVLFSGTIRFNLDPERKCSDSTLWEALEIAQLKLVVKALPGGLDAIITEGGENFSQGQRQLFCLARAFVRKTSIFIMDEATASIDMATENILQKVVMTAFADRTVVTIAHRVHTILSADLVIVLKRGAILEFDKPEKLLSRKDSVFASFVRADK
Chain of Kir6.2/SUR1 (Q14654 whole entry partner, species assumed): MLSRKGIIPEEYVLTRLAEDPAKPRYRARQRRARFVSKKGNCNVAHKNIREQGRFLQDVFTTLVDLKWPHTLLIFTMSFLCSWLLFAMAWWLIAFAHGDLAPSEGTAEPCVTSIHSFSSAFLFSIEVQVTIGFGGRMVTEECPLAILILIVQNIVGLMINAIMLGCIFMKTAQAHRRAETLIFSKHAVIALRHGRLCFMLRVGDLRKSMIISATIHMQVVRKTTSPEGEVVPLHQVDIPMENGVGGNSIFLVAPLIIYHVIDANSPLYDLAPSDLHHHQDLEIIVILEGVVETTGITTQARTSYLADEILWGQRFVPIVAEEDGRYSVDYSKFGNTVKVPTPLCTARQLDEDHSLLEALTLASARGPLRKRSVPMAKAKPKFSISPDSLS

| SMILES | Inhibition of Kir6.1/SUR2B whole-cell current (Kir6.1/SUR2B [1]) | Activation of Kir6.1/SUR2B (Kir6.1/SUR2B [2]) | Activation of Kir6.2/SUR1 (Kir6.2/SUR1) | IC50 (Kir6.1/SUR2B [3]; [4]) | IC50 (Kir6.1/SUR2B [3]; [5]) |
| --- | --- | --- | --- | --- | --- |
| O=C1c2oc3ccccc3c(=O)c2C(c2cccc(Br)c2)N1CCO (centres unmarked) [VU0605768, 1-(3-bromophenyl)-2-(2-hydroxyethyl)-1,2-dihydrochromeno[2,3-c]pyrrole-3,9-dione] | complete KATP channel inhibition | failed to activate | dose-dependently activated; also recorded: induced dose-dependent Kir6.2/SUR1 activation; also recorded: activate Kir6.2/SUR1 at higher drug doses | 779 nM | 479 nM |
| O=C(NCc1cc(-c2ccncc2)n(C2CCCC2)n1)Nc1cccs1 [VU0544086, 1-((1-cyclopentyl-5-(pyridin-4-yl)-1 H-pyrazol-3-yl)methyl)-3-(thiophen-2-yl)urea] | complete KATP channel inhibition | failed to activate | failed to activate | 1000 nM | 1000 nM |
| c1ccc2[nH]c(CSc3ncnc4c3oc3ccccc34)nc2c1 [VU0212387, 4-(((1 H-benzo[d]imidazol-2-yl)methyl)thio)benzofuro[3,2-d]pyrimidine] | complete KATP channel inhibition | failed to activate | dose-dependently activated; also recorded: induced dose-dependent Kir6.2/SUR1 activation; also recorded: activate Kir6.2/SUR1 at higher drug doses | 619 nM and 600 nM | 1400 nM |
| O=C(NCC(O)(c1ccccc1)C(F)(F)F)c1ccc(OC(F)(F)F)cc1 (centres unmarked) [VU0543336, N-(3,3,3-trifluoro-2-hydroxy-2-phenylpropyl)-4-(trifluoromethoxy)benzamide] | complete KATP channel inhibition | failed to activate | dose-dependently activated; also recorded: induced dose-dependent Kir6.2/SUR1 activation; also recorded: activate Kir6.2/SUR1 at higher drug doses | 126 nM and 100 nM | 271 nM and 300 nM |
